Key:
[1] = tested on: polypeptide having β-fructofuranosidase activity; experiment: Action of the polypeptide on saccharide substrates (release of fructose, TLC); format: biochemical, Bacillus sp. V230; details: 2 w/v % substrate, 2 units/g substrate of polypeptide of Example 2-1, 40° C., pH 5.5, 24 hours
Method: An aqueous solution, containing as a substrate sucrose, raffinose, erlose, stachyose, lactosucrose, xylosylfructoside, maltose, cellobiose, lactose, inulin or levan in a concentration of 2 w/v %, was mixed with 2 units/g substrate, d.s.b., of a polypeptide obtained by the method in Example 2-1 and reacted at 40° C. and pH 5.5 for 24 hours.
An adequate amount of each reaction mixture was spotted on “KIESELGEL 60”, an aluminum plate for thin layer chromatography (TLC) commercialized by Merck & Co., Inc., Rahway, USA, developed at ambient temperature using a developing solvent system of 1-butanol, pyridine and water (=7:3:1 by volume), and dried. When the reaction mixture contained fructose, the plate was colored by spraying 0.5 N phosphate solution containing 0.2 w/v % naphthoresorcinol, and heated at 110° C. for 5 min, while the plate was colored by spraying a mixture solution of 20 w/v % sulfuric acid in methanol and heated at 110° C. for 10 min.

[2] = tested on: polypeptide having β-fructofuranosidase activity; experiment: Specificity for fructofuranosyl transfer from sucrose to acceptors (TLC); format: biochemical, Bacillus sp. V230; design: key: Compared with a reaction mixture of sucrose, “−” means unchanged; +: the size and color of a spot for fructofuranosyl acceptor reduced slightly, and spot for fructofuransyl-transferred product was slightly detected; ++: the size and color of a spot for fructofuranosyl acceptor more reduced and a spot for fructofuransyl transferred product was clearly observed; details: acceptor and sucrose (donor) in equal weight, 10 w/v %, 2 units/g sucrose of polypeptide of Example 2-1, 40° C., pH 5.5, 24 hours
Method: Using as fructofuranosyl acceptors the monosaccharides, oligosaccharides and alcohols in Table 1, the specificity of the present polypeptide for fructofuranosyl transfer was studied: Any one of the fructofuranosyl acceptors in Table 1 and sucrose as a fructofuranosyl donor were mixed in an equal amount by weight, and the mixture was dissolved in water into a 10 w/v % aqueous solution which was then mixed with 2 units/g sucrose, d.s.b., of a polypeptide obtained by the method in Example 2-1, and reacted at 40° C. and pH 5.5 for 24 hours. Thereafter, the reaction mixture was separated by TCL similarly as above, and the plate was colored by spraying 0.5 N phosphate solution containing 0.2 w/v % naphthoresorcinol, and the plate was heated at 110° C. for 5 min to color and detect fructofuranosyl-transferred products.

[3] = Thermal stability; format: physicochemical; details: incubated for 60 min in 50 mM acetate buffer pH 6.0
[4] = β-fructofuranosidase activity assay (reducing power, Somogyi-Nelson's method); format: biochemical; details: sucrose substrate, 20 mM acetate buffer pH 6.0 with 5 mM calcium chloride, 40° C., 10 min
Method: The activity of the present β-fructofuranosidase was assayed as follows: Sucrose as a substrate was dissolved in 20 mM acetate buffer (pH 6.0) containing 5 mM calcium chloride to give a concentration of 0.1 w/v %. To 5 ml of the solution was added 0.2 ml of a test sample, and the mixture was incubated at 40° C. for 10 min, followed by suspending the enzymatic reaction by the addition of 0.2 ml of the Somogyl copper solution and assaying the reducing power of the reaction mixture by the Somogyi-Nelson's method. As a control, a control solution, which was preheated at 100° C. for 10 min to inactivate the enzyme, was treated similarly as above. Under the above reaction conditions, one unit β-frustofuranosidase activity is defined as the amount of enzyme or polypeptide which gives a reducing power equal to that of 2 μmole of glucose per minute.

[5] = Optimum temperature; format: biochemical; details: 10 min, 20 mM acetate buffer pH 6.0
[6] = Optimum pH; format: biochemical; details: incubated at 40° C. for 10 min in 20 mM buffers

Molecule	Formation of fructofuranosyl-transferred product [2]	also measured
O=C[C@H](O)[C@@H](O)[C@H](O[C@@H]1O[C@H](CO)[C@@H](O)[C@H](O)[C@H]1O)[C@H](O)CO [Cellobiose]	++	action on substrate to release fructose [1]: did not substantially act on
OC[C@H]1O[C@H](OC[C@H]2O[C@H](O[C@H]3[C@H](O)[C@@H](O)C(O)O[C@@H]3CO)[C@H](O)[C@@H](O)[C@@H]2O)[C@H](O)[C@@H](O)[C@@H]1O (some centres unmarked) [Panose]	++	
OC[C@H]1O[C@H](OC[C@H]2OC(O)(CO)[C@@H](O)[C@@H]2O)[C@H](O)[C@@H](O)[C@@H]1O (some centres unmarked) [Palatinose]	+	
O=C[C@H](O)[C@@H](O)[C@@H](O)CO [L-Arabinose]	+	
OC[C@H]1O[C@@H](O[C@H]2[C@H](O)[C@@H](O)[C@@H](O[C@]3(CO)O[C@H](CO)[C@@H](O)[C@@H]3O)O[C@@H]2CO)[C@H](O)[C@@H](O)[C@H]1O [lactosucrose]		action on substrate to release fructose [1]: acted on
Maltotriose	++	
OC[C@H]1O[C@H](OC[C@H]2OC(O)[C@H](O)[C@@H](O)[C@@H]2O)[C@H](O)[C@@H](O)[C@@H]1O (some centres unmarked) [Isomaltose]	++	
OC[C@H]1O[C@H](O[C@H]2[C@H](O)[C@@H](O)[C@H](O)O[C@@H]2CO)[C@H](O)[C@@H](O)[C@@H]1O [Maltose]	++	action on substrate to release fructose [1]: did not substantially act on
OC[C@H]1O[C@H](O[C@H]2O[C@H](CO)[C@@H](O)[C@H](O)[C@H]2O)[C@H](O)[C@@H](O)[C@@H]1O [Trehalose]	++	
CC(C)O [2-Propanol]	−	
C[C@H](O)[C@H](O)[C@@H](O)[C@@H](O)C=O [L-Rhamnose]	+	
OCCO [Ethylene glycol]	++	
O=C(CO)[C@@H](O)[C@H](O)[C@@H](O)CO [L-Sorbose]	+	
OC[C@@H](O)[C@@H](O)[C@H](O)[C@@H](O)CO [D-Sorbitol]	++	
OC[C@H]1O[C@@](CO)(O[C@H]2O[C@H](CO)[C@@H](O)[C@H](O)[C@H]2O)[C@@H](O)[C@@H]1O [sucrose]		action on substrate to release fructose [1]: acted on
OCC(O)CO [Glycerol]	++	
O=C[C@@H](O)[C@@H](O)[C@H](O)[C@H](O)CO [D-Mannose]	+	
O=C(CO)[C@@H](O[C@H]1O[C@H](CO)[C@@H](O)[C@H](O)[C@H]1O)[C@H](O)[C@H](O)CO [Turanose]	+	
CCCO [1-Propanol]	−	
CCCCO [1-Butanol]	−	

Molecule	Formation of fructofuranosyl-transferred product [2]	also measured
CCC(C)O (centres unmarked) [2-Butanol]	−	
CCO [Ethanol]	+	
O=C[C@H](O)[C@@H](O)[C@@H](O)[C@H](O)CO [D-Galactose]	++	
O=C[C@H](O)[C@@H](O)[C@H](O)CO [D-Xylose]	++	
OC[C@H]1O[C@](CO)(O[C@H]2OC[C@@H](O)[C@H](O)[C@H]2O)[C@@H](O)[C@@H]1O [xylosylfructoside]		action on substrate to release fructose [1]: acted on
OC[C@@H](O)[C@H](O)[C@@H](O)CO [D-Xylitol]	++	
O=C(CO)[C@@H](O)[C@H](O)[C@H](O)CO [D-Fructose]	+	
OC[C@H]1O[C@H](OC[C@H]2O[C@H](O[C@]3(CO)O[C@H](CO)[C@@H](O)[C@@H]3O)[C@H](O)[C@@H](O)[C@@H]2O)[C@H](O)[C@@H](O)[C@H]1O [Raffinose]	+	action on substrate to release fructose [1]: acted on
CO [Methanol]	+	
OC[C@H]1O[C@H](OC[C@H]2O[C@H](OC[C@H]3O[C@H](O[C@]4(CO)O[C@H](CO)[C@@H](O)[C@@H]4O)[C@H](O)[C@@H](O)[C@@H]3O)[C@H](O)[C@@H](O)[C@H]2O)[C@H](O)[C@@H](O)[C@H]1O [stachyose]		action on substrate to release fructose [1]: acted on
OC[C@H]1O[C@@](CO)(O[C@H]2O[C@H](CO)[C@@H](O[C@H]3O[C@H](CO)[C@@H](O)[C@H](O)[C@H]3O)[C@H](O)[C@H]2O)[C@@H](O)[C@@H]1O [erlose]		action on substrate to release fructose [1]: acted on
OC[C@H]1O[C@H](OCC2O[C@@H](O)[C@H](O)[C@@H](O)[C@@H]2O)[C@H](O)[C@@H](O)[C@H]1O (some centres unmarked) [Melibiose]	++	
levan		action on substrate to release fructose [1]: did not substantially act on
inulin		action on substrate to release fructose [1]: did not substantially act on
OC[C@H]1O[C@@H](O[C@H]2[C@H](O)[C@@H](O)C(O)O[C@@H]2CO)[C@H](O)[C@@H](O)[C@H]1O (some centres unmarked) [Lactose]	++	action on substrate to release fructose [1]: did not substantially act on
OC[C@H]1O[C@@H](O[C@H]2O[C@H](CO)[C@@H](O)[C@H](O)[C@H]2O)[C@H](O)[C@@H](O)[C@@H]1O [Neotrehalose]	+	
OC[C@@H](O)[C@@H](O[C@H]1O[C@H](CO)[C@@H](O)[C@H](O)[C@H]1O)[C@H](O)[C@@H](O)CO [Maltitol]	++	
OC[C@H]1O[C@H](O[C@H]2C(O)O[C@H](CO)[C@@H](O)[C@@H]2O)[C@H](O)[C@@H](O)[C@@H]1O (some centres unmarked) [Kojibiose]	+	
polypeptide in Example 2-1: polypeptide with β-fructofuranosidase activity produced by transformant BBF4 (Escherichia coli), containing the amino acid sequence of SEQ ID NO:3 (protein) MNSGDYKEDYGFAHITRADMLKIPGQQNSPQFKVPQFNASAIKNIDSAKGYDKSGNLIDLDVWDSWPLQNADGTAANYHGYHIVSALAGDPKNSDDTPLHLFYQKVGDTSIDSWKNAGRVFEDMDKFVPNDPYLKYQTQEWSGSATLTKDGQVRLFYTDYSGNPEDGGTGAGNQIISTAQVNLSQPDAATLKVDGVSDHKSVFDGGDGTVYQNIQQFIDEGKWISGDNHTLRDPHYVEDKGHKYLVFEANTGTTDGYQGDQSFNNKAYYGGSDVFFQNEKNKLLQSPKKQIASLANGALGIVELADDYTVKSVMKPLVASNTVADEVERANIFKMNNKWYLFTDSRGSKMTSDGINDKDVYMLGPGGDSLNGPHNPINETGLVLNMNLDPADLTHTYSHCGIPHPEGNNVVLTSYMTNRGFYPEHHSHLRDKLGVNIKGSDTSGGENSSGQGQFP		thermal stability (stable up to temperature) [3]: ≤ 45 °C; specific activity (β-fructofuranosidase) [4]: 205 units/mg protein; optimum temperature ([5]; in the absence of calcium ion): ~45 °C; optimum temperature ([5]; in the presence of 5 mM calcium ion): about 50 °C; optimum pH [6]: 5.5-6.0
